Experimental data taken from patent US20220016200A1, “PHARMACEUTICAL COMPOSITION FOR THE TREATMENT OF CYSTIC FIBROSIS” (GALENUS G.H. AG, priority 2018, published 2022).
Read-outs that look alike come from different tables or passages of the source. Bridge positions count the residues as written; N and C are the ends. Square brackets hold non-standard residues; d marks the D form. Peptide text beside a SMILES is read from it. * marks the point of attachment. Heptanoyl(5-Me) = CCC(C)CCCC(=O)*; Dab = NCC[C@H](N)C(=O)O

What was measured:
A. haemolyticus 1655843 = assay: Checkerboard fusidic acid (FD) and colistin sulfate (CS), MIC/FIC and MBC/FBC; type: cell-based, Acinetobacter haemolyticus; conditions: agent alone, CAMHB, 1*10^6 CFU/ml
Method: Checkerboard assays between fusidic acid (FD) and colistin sulfate (CS) with a bacterial load 5(1-10)*10^5 CFU/ml in cationic adapted Mueller Hinton broth (CAMHB). • a. Antimicrobial stock solutions were prepared using sterile distilled water; • b. CS was added along the ordinate; FD was added along the abscissa to 96 well, flat bottom, polystyrene panels with no treatment. Colistin alone was tested in triplicates; • c. Serial 2-fold dilutions starting with 640 […] CS and 640 μg/ml FD were made; 15 μl volume of the serial dilutions were added for each agent to the appropriate wells—final volume at 30 μl; • d. For each agent tested alone an additional 15 μl media was added to the well. 30 μl were added in control wells where none of the agent was tested. The negative control well contains 150 μl media without any additions; • e. From an overnight bacterial culture in tryptic soy broth, 100 μL was added to 10 mL of fresh tryptic soy broth. This was then incubated at 37° C. for 1.5 hour at 180 rpm; • f. Bacteria in 120 μl CAMHB were added to each well (end concentration 5(1-10)*10^5 CFU/ml); • g. Plates were incubated at 37° C. in an ambient air incubator for 24 h • h. Turbidity at OD600 is determined with a plate photometer • i. By using a one-time inoculator 3 μl from each well of the 96-well plate were transferred to three blood agar plates. The plates were incubated over night at 37° C. in an ambient air incubator; • j. MIC values are defined as lowest concentration which restricts bacterial growth to OD600≤0.1; • k. MBC values were determined by visual reading the lowest concentration which inhibits 99.9% of the growth of bacteria in the wells; • l. Determination of the fractional inhibitory concentration (FIC) index and fractional bactericidal concentration (FBC) index and characterization of antimicrobial interactions was assessed;
FIC calculation was carried out as: (MIC of drug A, tested in combination)/(MIC of drug A, tested alone)+(MIC of drug B, tested in combination)/(MIC of drug B, tested alone). FBC calculation was carried out just as well;
Interactive categories were calculated from checkerboard analysis using MIC results from testing each agent alone and MIC results from the combination wells adjacent to the wells with growth in them.
Determination of the fractional inhibitory concentration (FIC) index and fractional bactericidal concentration (FBC) index and characterization of antimicrobial interactions was assessed:
(ii) Indifference; FIC/FBC>0.5 to <4.0
(iii) Antagonism; FIC/FBC≥4.0
c. Acinetobacter haemolyticus 1655843 (IHMA), colistin resistant (3xCS>16/>16-64/>64)

S. maltophilia 1237289 = assay: Checkerboard colistin sulphate (CS) plus teicoplanin (TP), MIC/FIC and MBC/FBC; type: cell-based, Stenotrophomonas maltophilia; conditions: agent alone, CAMHB, 5*10^5 CFU/ml; for MIC: S. maltophilia 1237289
Method: Checkerboard analysis to determine minimal inhibitory concentration (MIC)/fractional inhibitory concentration (FIC) and minimal […] (MBC)/fractional bacterial concentration (FBC) values of colistin sulphate (CS) plus teicoplanin (TP) for 6 Gram-negative strains with a bacterial load 5(1-10)*10^5 CFU/ml in a cation-adjusted Mueller-Hinton broth (CAMHB). • a. Antimicrobial stock solutions were prepared using sterile distilled water • b. CS was added along the ordinate; TP was added along the abscissa to 96 well, flat bottom, polystyrene panels with no treatment. Colistin alone was tested in triplicates. • c. Serial 2-fold dilutions starting with 640 μg/ml CS and 640 μg/ml TP were made; 15 μl volume of the serial dilutions were added for each agent to the appropriate wells; final volume at 30 μl • d. For each agent tested alone an additional 15 μl media was added to the well. 30 μl were added in control wells where none of the agent was tested. The negative control well contains 150 μl media without any additions • e. From an overnight bacterial culture in tryptic soy broth, 100 μL was added to 10 mL of fresh tryptic soy broth. This was then incubated at 37° C. for 1.5 hour at 180 rpm. • f. Bacteria in 120 μl CAMHB were added to each well (end concentration 5(1-10)*10^5 CFU/ml) • g. […] Turbidity at OD600 is determined with a plate photometer • i. By using a one-time inoculator 3 μl from each well of the 96-well plate were transferred to three blood agar plates. The plates were incubated over night at 37° C. in an ambient air incubator • j. MIC values are defined as lowest concentration which restricts bacterial growth to OD600 ≤0.1 • k. MBC values were determined by visual reading the lowest concentration which inhibits 99.9% of the growth of bacteria in the wells • l. Determination of the fractional inhibitory concentration (FIC) index and fractional bactericidal concentration (FBC) index and characterization of antimicrobial interactions was assessed […]
FIC calculation was carried out as: (MIC of drug A, tested in combination)/(MIC of drug A, tested alone)+(MIC of drug B, tested in combination)/(MIC of drug B, tested alone). FBC calculation was carried out just as well […]
Interactive categories were calculated from checkerboard analysis using MIC results from testing each agent alone and MIC results from the combination wells adjacent to the wells with growth in them […]
b. Indifference; FIC/FBC>0.5 to<4.0 c. Antagonism; FIC/FBC≥4.0 f. S. maltophilia 1237289 (IHMA), colistin resistant

CCC(C)CCCC(=O)N[C@@H](CCN)C(=O)N[C@H](C(=O)N[C@@H](CCN)C(=O)N[C@H]1CCNC(=O)[C@H]([C@@H](C)O)NC(=O)[C@H](CCN)NC(=O)[C@H](CCN)NC(=O)[C@H](CC(C)C)NC(=O)[C@@H](CC(C)C)NC(=O)[C@H](CCN)NC1=O)[C@@H](C)O (stereo partly drawn) [CS, colistin sulphate] ({Heptanoyl(5-Me)}-[Dab]T[Dab][Dab][Dab][dL]L[Dab][Dab]T; lactam 4-C)
MIC (A. haemolyticus 1655843; A. haemolyticus 1655843, 24 h): 64 mg/1l
MBC (A. haemolyticus 1655843; Acinetobacter haemolyticus, 1655843, A. haemolyticus 1655843): > 64 µg/mL
MIC (S. maltophilia 1237289; after 48 h growth (values in brackets)): (8) mg/l
MIC (S. maltophilia 1237289; Stenotrophomonas maltophilia, 1237289, 24 h, 24 h, read-out: MIC): ≤ 0.5 µg/mL
MBC (S. maltophilia 1237289; Stenotrophomonas maltophilia, S. maltophilia, second of two rows (strain number not given; by order 1237289)): 8 µg/mL
